Laboratory results reported in article PMC12692861, “Biotin-Linked Ursolic Acid Conjugates as Selective Anticancer Agents and Target-Identification Tools for Cancer Therapy” (Molecules, 2025).

Legend:
[1] = molecular target: Histone H2B type 1-M (Homo sapiens, UniProt Q99879); test: Streptavidin pulldown proteomics (LC-MS/MS), 5637 cells; assay type: binding; conditions: 5637, 50 µM
Description: (§1) We used proteomics to identify potential molecular targets of 5c. A pulldown assay with streptavidin-agarose-coated magnetic beads was performed. Briefly, 5637 and MB49 cells were incubated with 50 µM 5c for 10 min and 1 h. After incubation, the cells were rinsed three times with cold phosphate-buffered saline (PBS), and cell lysates were prepared and clarified by centrifugation to remove cellular debris, including nuclei. The clarified lysates were incubated with streptavidin-coated magnetic beads to selectively bind biotinylated contents. Bound proteins were separated from unbound proteins through thorough bead washing. Proteins attached to the beads were eluted and analyzed on an Orbitrap Fusion Tribrid mass spectrometer (Thermo Scientific, New York, NY, USA) coupled with an Ultimate 3000 nano-UPLC system. Samples were trapped on a PepMap100 C18 trap column (5 µm, 0.3 × 5 mm) and separated on a PepMap RSLC C18 column (2 µm, 75 µm × 150 mm) using a gradient from 2 to 40% acetonitrile with 0.1% formic acid over 120 min at […] and 40 °C. MS data were acquired in positive mode using data-dependent acquisition (DDA), with precursor scans at 120,000 FWHM (400–2000 m/z), and MS/MS scans in top-speed mode (3 s cycle) using HCD fragmentation (NCE 32%). Proteins were identified and quantified based on peptide spectral matches (PSMs), and fold enrichment compared to controls was calculated to evaluate interaction strength.
(§2) The 5637 and MB49 cells were cultured and treated with higher concentrations of 5c (50 µM) for short period of times (10 min & 60 min) followed by whole cell lysis (WCL) preparation of both treated and untreated cells using modified RIPA buffer [NaCl (100mM), TrisCl (20mM, pH 7.4), EDTA (10 mM), TritonX-100 (0.5%), Glycerol (5%), Protease inhibitor cocktail (1x)] with gentle continuous rotation. The protein content of each WCL was estimated using Pierce™ BCA Protein Assay kit (Thermo-Scientific # 23225). The 100 µL of resuspended Dynabeads™ MyOne™ Streptavidin C1 (Invitrogen # 65001) were washed with PBST (PBS with 0.01% Tween™20) in a magnet stand as recommended in the manufacturer’s instructions. The washed beads were incubated with 200 µg of each WCL in separate tubes at room temperature for 2 h in a gentle end-over-end mixing. After incubation, beads were washed 3–5 times with PBST (0.01% Tween-20) on a magnetic stand and beads were decanted by after spinning and magnetization. The samples were stored at −80 °C till further analysis using LC-MS/MS by the Proteomics and Mass Spectrometry Core Laboratory of Augusta University.

[2] = molecular target: Histone H2A type 2-C (HIST2H2AC) (Homo sapiens, UniProt Q16777); test: as above; assay type: binding; conditions: 5637, 50 µM
Description: as §1, §2

[3] = molecular target: ATP synthase subunit alpha (Homo sapiens, UniProt P25705); test: as above; assay type: binding; conditions: 5637, 50 µM
Description: as §1, §2

[4] = molecular target: Elongation factor 2 (eEF2) (Homo sapiens, UniProt P13639); test: as above; assay type: binding; conditions: 5637, 50 µM
Description: as §1, §2

[5] = molecular target: Rab-like protein 6 (RABL6) (Homo sapiens, UniProt Q3YEC7); test: as above; assay type: binding; conditions: 5637, 50 µM
Rab-like protein 6 (RABL6), sequence (Q3YEC7 whole entry): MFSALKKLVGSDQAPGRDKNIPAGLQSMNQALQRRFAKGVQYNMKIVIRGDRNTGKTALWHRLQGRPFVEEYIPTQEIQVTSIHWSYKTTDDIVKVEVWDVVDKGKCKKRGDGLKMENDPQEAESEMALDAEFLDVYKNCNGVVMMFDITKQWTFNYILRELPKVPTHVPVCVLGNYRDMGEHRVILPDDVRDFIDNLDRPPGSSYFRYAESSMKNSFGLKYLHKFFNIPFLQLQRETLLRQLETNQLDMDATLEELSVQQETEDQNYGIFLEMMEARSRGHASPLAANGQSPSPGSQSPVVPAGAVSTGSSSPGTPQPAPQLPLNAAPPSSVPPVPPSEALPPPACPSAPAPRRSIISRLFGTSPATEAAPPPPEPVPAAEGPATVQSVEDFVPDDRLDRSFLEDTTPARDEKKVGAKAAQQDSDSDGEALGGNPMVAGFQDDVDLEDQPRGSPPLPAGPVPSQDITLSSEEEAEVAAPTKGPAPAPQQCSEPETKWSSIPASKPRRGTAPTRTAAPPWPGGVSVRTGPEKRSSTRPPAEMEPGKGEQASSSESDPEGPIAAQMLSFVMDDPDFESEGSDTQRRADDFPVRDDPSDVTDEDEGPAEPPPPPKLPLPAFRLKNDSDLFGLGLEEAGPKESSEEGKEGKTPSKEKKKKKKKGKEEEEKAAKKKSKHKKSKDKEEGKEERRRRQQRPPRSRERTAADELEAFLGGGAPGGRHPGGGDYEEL
Description: as §1, §2

[6] = molecular target: Histone H2A.Z (Homo sapiens, UniProt P0C0S5); test: as above; assay type: binding; conditions: 5637, 50 µM
Histone H2A.Z, sequence (P0C0S5 whole entry): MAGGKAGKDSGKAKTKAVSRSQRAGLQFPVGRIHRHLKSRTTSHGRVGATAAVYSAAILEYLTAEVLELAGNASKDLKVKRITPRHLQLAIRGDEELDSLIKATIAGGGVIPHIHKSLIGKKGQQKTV
Description: as §1, §2

[7] = molecular target: Histone H4 (Homo sapiens, UniProt P62805); test: as above; assay type: binding; conditions: 5637, 50 µM
Description: as §1, §2

[8] = molecular target: Splicing factor U2AF 65 kDa subunit (U2AF65) (Homo sapiens, UniProt P26368); test: as above; assay type: binding; conditions: 5637, 50 µM
Description: as §1, §2

[9] = molecular target: Elongation factor 1-beta (EF1β) (Homo sapiens, UniProt P24534); test: as above; assay type: binding; conditions: 5637, 50 µM
Elongation factor 1-beta (EF1β), sequence (P24534 whole entry): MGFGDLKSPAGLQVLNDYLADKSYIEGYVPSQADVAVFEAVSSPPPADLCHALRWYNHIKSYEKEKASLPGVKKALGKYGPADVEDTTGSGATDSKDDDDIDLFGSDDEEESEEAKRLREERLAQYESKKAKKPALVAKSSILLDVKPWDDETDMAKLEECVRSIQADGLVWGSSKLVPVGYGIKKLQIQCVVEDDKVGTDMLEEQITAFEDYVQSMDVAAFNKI
Description: as §1, §2

[10] = molecular target: ATP synthase subunit beta (Homo sapiens, UniProt P06576); test: as above; assay type: binding; conditions: 5637, 50 µM
Description: as §1, §2

[11] = molecular target: HSC 71 (Homo sapiens, UniProt P11142); test: as above; assay type: binding; conditions: 5637, 50 µM
Description: as §1, §2

[12] = molecular target: Filamin-A (FLNA) (Homo sapiens, UniProt P21333); test: as above; assay type: binding; conditions: 5637, 50 µM
Filamin-A (FLNA), sequence (P21333 whole entry): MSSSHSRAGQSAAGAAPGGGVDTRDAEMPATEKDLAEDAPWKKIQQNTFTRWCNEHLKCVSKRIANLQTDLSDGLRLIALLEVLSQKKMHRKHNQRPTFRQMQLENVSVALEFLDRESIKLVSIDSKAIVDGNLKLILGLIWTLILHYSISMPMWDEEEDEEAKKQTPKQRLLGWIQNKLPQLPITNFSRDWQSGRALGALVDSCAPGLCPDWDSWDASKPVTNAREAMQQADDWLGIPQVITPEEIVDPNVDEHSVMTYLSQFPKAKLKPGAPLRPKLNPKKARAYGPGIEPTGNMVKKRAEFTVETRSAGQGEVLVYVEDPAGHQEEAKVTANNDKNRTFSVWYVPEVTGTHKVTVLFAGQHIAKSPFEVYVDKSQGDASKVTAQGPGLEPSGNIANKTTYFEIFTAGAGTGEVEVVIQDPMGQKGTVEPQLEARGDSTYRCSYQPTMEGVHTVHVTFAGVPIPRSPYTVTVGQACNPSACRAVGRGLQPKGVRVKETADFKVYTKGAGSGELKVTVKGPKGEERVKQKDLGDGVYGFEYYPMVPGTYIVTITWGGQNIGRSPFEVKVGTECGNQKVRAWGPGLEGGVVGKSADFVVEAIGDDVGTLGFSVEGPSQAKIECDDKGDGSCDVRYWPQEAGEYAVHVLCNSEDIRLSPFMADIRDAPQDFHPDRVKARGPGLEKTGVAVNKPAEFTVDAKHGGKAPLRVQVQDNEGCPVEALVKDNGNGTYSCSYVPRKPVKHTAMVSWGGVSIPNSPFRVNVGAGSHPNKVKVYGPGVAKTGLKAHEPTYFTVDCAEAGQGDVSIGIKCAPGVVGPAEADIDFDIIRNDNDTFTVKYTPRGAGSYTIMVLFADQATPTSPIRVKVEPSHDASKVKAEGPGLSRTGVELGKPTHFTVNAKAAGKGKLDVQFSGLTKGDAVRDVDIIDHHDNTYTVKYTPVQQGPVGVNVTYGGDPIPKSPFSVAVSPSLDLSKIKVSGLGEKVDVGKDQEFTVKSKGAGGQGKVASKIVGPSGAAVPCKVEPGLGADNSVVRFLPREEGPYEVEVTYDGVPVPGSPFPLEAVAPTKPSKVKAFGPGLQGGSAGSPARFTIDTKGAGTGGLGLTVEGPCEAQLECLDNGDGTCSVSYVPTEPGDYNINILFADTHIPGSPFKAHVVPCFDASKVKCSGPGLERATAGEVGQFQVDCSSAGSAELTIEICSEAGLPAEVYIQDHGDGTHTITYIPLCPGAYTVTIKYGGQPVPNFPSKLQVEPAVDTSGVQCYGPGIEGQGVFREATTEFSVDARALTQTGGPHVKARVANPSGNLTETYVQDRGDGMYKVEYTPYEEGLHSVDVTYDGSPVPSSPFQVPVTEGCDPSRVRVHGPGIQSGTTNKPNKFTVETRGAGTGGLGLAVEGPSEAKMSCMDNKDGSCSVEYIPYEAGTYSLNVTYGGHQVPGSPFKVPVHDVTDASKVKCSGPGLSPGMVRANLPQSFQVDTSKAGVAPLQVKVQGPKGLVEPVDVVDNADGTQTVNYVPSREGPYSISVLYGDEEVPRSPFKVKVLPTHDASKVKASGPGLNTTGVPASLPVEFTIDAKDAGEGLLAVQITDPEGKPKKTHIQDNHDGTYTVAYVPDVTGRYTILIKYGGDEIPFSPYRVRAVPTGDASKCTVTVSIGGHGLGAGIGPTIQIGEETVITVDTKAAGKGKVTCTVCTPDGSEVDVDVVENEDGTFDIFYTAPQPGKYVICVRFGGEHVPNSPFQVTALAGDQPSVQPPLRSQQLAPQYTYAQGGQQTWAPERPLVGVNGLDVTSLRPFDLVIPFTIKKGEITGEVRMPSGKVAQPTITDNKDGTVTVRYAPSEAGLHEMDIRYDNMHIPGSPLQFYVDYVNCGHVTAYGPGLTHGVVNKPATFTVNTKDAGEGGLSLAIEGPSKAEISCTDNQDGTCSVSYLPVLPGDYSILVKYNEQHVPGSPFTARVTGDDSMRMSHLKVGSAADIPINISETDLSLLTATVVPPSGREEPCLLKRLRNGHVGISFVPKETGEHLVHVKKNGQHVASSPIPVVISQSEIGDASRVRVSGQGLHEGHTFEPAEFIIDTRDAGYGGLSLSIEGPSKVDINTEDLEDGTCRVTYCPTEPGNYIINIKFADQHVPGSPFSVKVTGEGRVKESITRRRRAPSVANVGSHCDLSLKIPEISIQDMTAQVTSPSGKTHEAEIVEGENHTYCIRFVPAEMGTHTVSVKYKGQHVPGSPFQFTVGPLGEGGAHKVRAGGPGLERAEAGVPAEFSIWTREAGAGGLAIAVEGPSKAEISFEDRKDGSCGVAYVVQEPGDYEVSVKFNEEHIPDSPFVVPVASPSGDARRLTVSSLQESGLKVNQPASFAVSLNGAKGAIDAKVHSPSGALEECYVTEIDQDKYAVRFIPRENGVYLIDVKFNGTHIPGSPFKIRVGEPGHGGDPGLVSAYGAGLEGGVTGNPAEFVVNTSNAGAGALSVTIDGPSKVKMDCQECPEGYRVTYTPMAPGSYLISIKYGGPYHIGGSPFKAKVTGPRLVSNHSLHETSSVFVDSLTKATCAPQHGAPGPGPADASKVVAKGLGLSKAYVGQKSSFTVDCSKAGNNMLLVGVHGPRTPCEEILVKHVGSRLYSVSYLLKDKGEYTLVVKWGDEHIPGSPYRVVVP
Description: as §1, §2

[13] = molecular target: Receptor of activated protein C kinase 1 (RACK1) (Homo sapiens, UniProt P63244); test: as above; assay type: binding; conditions: 5637, 50 µM
Description: as §1, §2

[14] = test system: RNA-binding protein 39 (RBM39); test: Streptavidin pulldown proteomics (LC-MS/MS), MB49 cells; design: species or system murine; conditions: MB-49, 50 µM
Description: as §1, §2

[15] = test system: ATP-binding cassette sub-family A; test: as above; design: species or system murine; conditions: MB-49, 50 µM
Description: as §1, §2

[16] = molecular target: Poly(U)-binding-splicing factor 60 (PUF60) (Mus musculus, UniProt Q3UEB3); test: as above; design: species or system murine; conditions: MB-49, 50 µM
Description: as §1, §2

[17] = test system: Coiled-coil domain-containing protein; test: Streptavidin pulldown proteomics (LC-MS/MS), 5637 cells; assay type: binding, human; conditions: 5637, 50 µM
Description: as §1, §2

[18] = test system: Eukaryotic initiation factor 4A (eIF4A); test: as above; assay type: binding, human; conditions: 5637, 50 µM
Description: as §1, §2

[19] = test system: DNA topoisomerase; test: as above; assay type: binding, human; conditions: 5637, 50 µM
Description: as §1, §2

[20] = test system: Eukaryotic translation initiation factor 2 (eIF2); test: as above; assay type: binding, human; conditions: 5637, 50 µM
Description: as §1, §2

[21] = molecular target: RNA-binding protein 39 (RBM39) (Homo sapiens, UniProt Q14498); test: as above; conditions: 5637, 50 µM
RNA-binding protein 39 (RBM39) (Homo sapiens, UniProt Q14498), sequence (Q14498 whole entry): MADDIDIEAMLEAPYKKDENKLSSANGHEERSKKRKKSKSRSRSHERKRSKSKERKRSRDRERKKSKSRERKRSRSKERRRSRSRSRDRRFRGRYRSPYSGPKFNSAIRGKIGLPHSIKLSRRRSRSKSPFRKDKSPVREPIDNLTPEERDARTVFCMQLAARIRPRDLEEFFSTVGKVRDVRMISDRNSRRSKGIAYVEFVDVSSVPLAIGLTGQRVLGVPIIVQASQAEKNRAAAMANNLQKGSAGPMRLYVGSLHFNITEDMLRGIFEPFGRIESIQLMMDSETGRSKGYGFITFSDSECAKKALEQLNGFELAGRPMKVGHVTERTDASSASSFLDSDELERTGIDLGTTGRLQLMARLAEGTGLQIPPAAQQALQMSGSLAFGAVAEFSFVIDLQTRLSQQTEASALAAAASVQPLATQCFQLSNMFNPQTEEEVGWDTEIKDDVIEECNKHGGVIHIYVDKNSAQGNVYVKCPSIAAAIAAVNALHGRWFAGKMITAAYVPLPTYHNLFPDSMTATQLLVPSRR
Description: as §1, §2

[22] = molecular target: Poly(U)-binding-splicing factor 60 (PUF60) (Homo sapiens, UniProt Q9UHX1); test: as above; conditions: 5637, 50 µM
Poly(U)-binding-splicing factor 60 (PUF60) (Homo sapiens, UniProt Q9UHX1), sequence (Q9UHX1 whole entry): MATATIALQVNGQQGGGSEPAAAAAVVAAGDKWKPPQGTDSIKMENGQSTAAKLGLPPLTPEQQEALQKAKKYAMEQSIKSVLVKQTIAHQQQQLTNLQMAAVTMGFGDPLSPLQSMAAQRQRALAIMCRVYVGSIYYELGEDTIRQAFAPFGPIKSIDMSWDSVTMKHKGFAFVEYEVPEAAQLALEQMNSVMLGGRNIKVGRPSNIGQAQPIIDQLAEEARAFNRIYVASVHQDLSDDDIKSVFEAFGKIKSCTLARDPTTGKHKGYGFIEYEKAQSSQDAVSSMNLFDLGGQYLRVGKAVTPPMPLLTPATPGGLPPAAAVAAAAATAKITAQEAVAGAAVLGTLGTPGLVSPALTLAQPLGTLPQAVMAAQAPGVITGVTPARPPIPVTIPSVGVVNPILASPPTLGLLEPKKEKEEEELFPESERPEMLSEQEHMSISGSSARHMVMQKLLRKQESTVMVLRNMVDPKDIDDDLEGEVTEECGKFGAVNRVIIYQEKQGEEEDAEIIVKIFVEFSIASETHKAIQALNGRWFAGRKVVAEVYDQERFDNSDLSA
Description: as §1, §2

**Q.** Which results are given for `CC1CCC2(C(=O)OCCCCOC(=O)CCCCC3SCC4NC(=O)NC43)CCC3(C)C(=CCC4C5(C)CCC(O)C(C)(C)C5CCC43C)C2C1C` [Compound 5c, 4-((5-((3aS,4S,6aR)-2-Oxohexahydro-1H-thieno [3,4-d]imidazol-4-yl)pentanoyl)oxy) butyl 3-hydroxy-urs-12-en-28-oate]?
**A.** Fold Change 10 min/Ctrl [1]: 3.16; Fold Change 1 h/Ctrl [1]: 1.37; Fold Change 10 min/Ctrl [2]: 3.48; Fold Change 1 h/Ctrl [2]: 3.04; Fold Change 10 min/Ctrl [3]: 1.63; Fold Change 1 h/Ctrl [3]: 2; Fold Change 10 min/Ctrl [4]: 44; Fold Change 1 h/Ctrl [4]: 50; Fold Change 10 min/Ctrl [5]: 1.33; Fold Change 1 h/Ctrl [5]: 2.67; Fold Change 10 min/Ctrl [6]: 5.85; Fold Change 1 h/Ctrl [6]: 4.78; Fold Change 10 min/Ctrl [7]: 13.23; Fold Change 1 h/Ctrl [7]: 11.08; Fold Change 10 min/Ctrl [8]: 14; Fold Change 1 h/Ctrl [8]: 10; Fold Change 10 min/Ctrl [9]: 2.35; Fold Change 1 h/Ctrl [9]: 2.35; Fold Change 10 min/Ctrl [10]: 3.29; Fold Change 1 h/Ctrl [10]: 5; Fold Change 10 min/Ctrl [11]: 5.25; Fold Change 1 h/Ctrl [11]: 6.25; Fold Change 10 min/Ctrl [12]: 16; Fold Change 1 h/Ctrl [12]: 18; Fold Change 10 min/Ctrl [13]: 6; Fold Change 1 h/Ctrl [13]: 6; Fold Change 10 min/Ctrl [14]: 2; Fold Change 1 h/Ctrl [14]: 1.71; Fold Change 10 min/Ctrl [15]: 1; Fold Change 1 h/Ctrl [15]: 2; Fold Change 10 min/Ctrl [16]: 2.33; Fold Change 1 h/Ctrl [16]: 3.33; Fold Change 10 min/Ctrl [17]: 0; Fold Change 1 h/Ctrl [17]: 2; Fold Change 10 min/Ctrl [18]: 22; Fold Change 1 h/Ctrl [18]: 19; Fold Change 10 min/Ctrl [19]: 0.08; Fold Change 1 h/Ctrl [19]: 0.11; Fold Change 10 min/Ctrl [20]: 14; Fold Change 1 h/Ctrl [20]: 7; Fold Change 10 min/Ctrl [21]: 3.5; Fold Change 1 h/Ctrl [21]: 3; Fold Change 10 min/Ctrl [22]: 6; Fold Change 1 h/Ctrl [22]: 5
